Earlier results as cited in publication PMC11891579, “Fluorescent PyrAte-(S)-citalopram conjugates enable imaging of the serotonin transporter in living tissue” (Chemical Science, 2025).

System: organic cation transporter 3 (OCT3)
Design: method as in PMID 34884800
Conditions: cited from earlier work

Compound: CN(C)CCC[C@@]1(c2ccc(F)cc2)OCc2cc(C#N)ccc21 [(S)-citalopram]
- affinity towards OCT3: does not display affinity towards OCT3
